# Patent US20260248799A1, “COMBINATIONS OF RETINALDEHYDE DEHYDROGENASE 1 (RALDH1) INHIBITORS AND IMMUNOSTIMULATORS AND METHODS USING SAME” (The Trustees of the University of Pennsylvania, priority 2023, published 2026)
# Key:
# SNU398 human HCC cells = experiment: AldeRed (Aldefluor) assay in SNU398 cells; assay type: cell-based
# Experimental: The AldeRed assay (EMD Millipore) was performed according to manufacturer's instructions to identify cells with ALDH activity. In brief, single-cell suspensions of Huh7, Huh1, SNU449, SNU398, HEP3B, PLC, Hepa 1-6, Hep55, and AL458A cultured cells or single-cell suspension generated from enzymatic digestion of tumors generated from transplantation of these cells in mice (as indicated in figure legends) were incubated with a fluorescent and non-toxic ALDH substrate (AldeRed 588-A); the fluorescent product accumulates in cells proportional to their ALDH activity. The amount of fluorescence produced is measured by flow cytometry. The ALDH inhibitor diethylaminobenzaldehyde (DEAB, provided with the AldeRed assay kit) was used as a negative control for background fluorescence assessment.
# The Aldefluor assay has been used to identify and isolate cells with high ALDH activities. This assay is based on the principle that ALDH can convert the ALDH-substrate, Bodipy-aminoacetaldehyde (BAAA) into Bodipy-aminoacetate (BAA) which is retained inside the cells. BAAA is uncharged and can diffuse freely into intact viable cells, however BAA cannot cross the membrane due to its net negative charge, which makes remain in the cells and the assay buffer prevents efflux of the BAA from the cells. Therefore, the amount of BAA fluorescence in cells is proportional to ALDH activity and can be measured using a flow cytometer. A specific inhibitor of ALDH, diethylaminobenzaldehyde (DEAB), is used for background fluorescence control.
# Huh1 tumors = Huh1 tumors in nude mice; assay type: in vivo, mouse; details: huh1 in immunodeficient mice; i.p, 10 mg/kg every day
# Experimental: FIG. 27A: Huh1 tumor-bearing nude mice were treated with C86 (i.p, 10 mg/kg) every day. Three or more independent experiments with at least three replicates per sample type. Two-tailed T test. *p<0.05, **p<0.01, ***p<0.001. FIG. 27B: Equal numbers of Raldh1-KO Huh7 and parental Huh7 cells were seeded and viable cells counted over time. […] FIG. 27C: NU/J mice harboring flank Huh7 tumors were treated i.p with C86 daily or with liposomal chlodronate (CloLipo, 200 μl/mouse) every four days. Tumors were harvested 13 days post tumor induction and analyzed for the frequency (left graph) and number (right graph) of the macrophages (CD45+ F4/80+) under different treatment conditions (X-axis). Three or more independent experiments with at least three replicates per sample type. Two-tailed T test. *p<0.05, **p<0.01, ***p<0.001. FIG. 27D: Pictures depicting size differences amongst tumors in experiment outlined in FIG. 26G. […]
# Cultured Huh7, Huh1, Hepa 1-6, Hep55, and FS (as indicated in figure legends) tumor cells were detached using 0.25% trypsin (Gibco, catalog #25200056), washed once with 1×PBS, and counted before implantation. […] Tumor dimensions were measured using a caliper starting at the day indicated in the accompanying figure legend and every two to three days thereafter; volume was calculated by using formula Length*Width^2/2. […]
# [1] = Chow PK of C86, 15-day study in CD-1 mice; assay type: in vivo, mouse; details: 15-day period
# Experimental: FIG. 31A: Completed blood count (CBC) was performed at IDEXX on whole blood collected from indicated RALDH1 genotypes (X-axis). One experiment with four replicates per experimental group. One-way ANOVA. *p<0.05, **p<0.01, ***p<0.001. FIG. 31B: Weights of mice of the indicated RALDH1 genotypes. Siblings were used for all genotypes to control for confounding factors. One experiment with four replicates per experimental group. One-way ANOVA. *p<0.05, **p<0.01, ***p<0.001. […] Diet (or PO) #A, B, and C (shown in the inbox of individual graphs) corresponds to drug dose of 10, 30, and 60 mg/kg respectively. Mice had free access to food and water during the 15-day study.
# The PK studies were done at NIH or a commercial CRO—Pharmacon using their in-house standard protocol. […] For C99, IV and PO, performed at NIH using CD-1 mice; formulation: 20% HPbCD in saline.
# [2] = target: T1, Peptidase, CTSG (Cathepsin G) (Homo sapiens, UniProt P08311); experiment: Safetyscreen: Cathepsin G; assay type: biochemical; details: read-out: % Inh. Peptidase, CTSG (Cathepsin G)
# T1 construct: Eurofins Cerep Panlabs (contract panel)
# Phosphodiesterase PDE4 = experiment: Safetyscreen: PDE4; assay type: biochemical, human; details: 10 μM
# Adrenergic α2B = target: T2, Adrenergic α2B (Homo sapiens, UniProt P18089); experiment: Safetyscreen: Adrenergic α2B; assay type: binding; details: read-out: % Inh. Adrenergic α2B
# T2 construct: Eurofins Cerep Panlabs (contract panel)
# GABABIA = target: T3, GABABIA (Homo sapiens, UniProt Q9UBS5); experiment: Safetyscreen: GABABIA; assay type: binding; details: read-out: % Inh. GABABIA
# T3 construct: purchased Eurofins Cereps Panlabs
# Melanocortin MC4 = target: T4, Melanocortin MC4 (Homo sapiens, UniProt P32245); experiment: Safetyscreen: MC4; assay type: binding; details: read-out: % Inh. Melanocortin MC4
# T4 construct: Eurofins Cereps Panlabs (contract panel)
# Nicotinic Acetylcholine = experiment: Safetyscreen: Nicotinic Acetylcholine; assay type: binding, human; details: 10 μM
# [3] = target: T5, Transporter, Norepinephrine (NET) (Homo sapiens, UniProt P23975); experiment: Safetyscreen: NET; assay type: binding; details: read-out: % Inh. Transporter, Norepinephrine (NET)
# T5 construct: purchased Eurofins Cereps Panlabs
# T5 sequence (P23975 whole entry): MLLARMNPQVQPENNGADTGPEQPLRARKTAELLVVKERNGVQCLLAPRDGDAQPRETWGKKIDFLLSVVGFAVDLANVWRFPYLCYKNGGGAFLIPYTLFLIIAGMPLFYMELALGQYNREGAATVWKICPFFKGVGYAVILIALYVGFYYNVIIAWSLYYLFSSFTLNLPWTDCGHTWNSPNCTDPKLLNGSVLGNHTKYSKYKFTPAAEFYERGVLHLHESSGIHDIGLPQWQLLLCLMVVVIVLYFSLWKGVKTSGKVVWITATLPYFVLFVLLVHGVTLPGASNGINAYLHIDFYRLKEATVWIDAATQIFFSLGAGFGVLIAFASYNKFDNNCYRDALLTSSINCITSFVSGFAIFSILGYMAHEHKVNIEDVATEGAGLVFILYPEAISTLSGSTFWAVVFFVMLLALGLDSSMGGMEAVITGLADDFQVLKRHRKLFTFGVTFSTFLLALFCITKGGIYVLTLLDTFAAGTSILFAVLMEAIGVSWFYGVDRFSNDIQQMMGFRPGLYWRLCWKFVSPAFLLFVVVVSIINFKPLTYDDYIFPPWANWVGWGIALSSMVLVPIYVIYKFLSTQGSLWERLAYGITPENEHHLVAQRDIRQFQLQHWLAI
# T2 sequence (P18089 whole entry): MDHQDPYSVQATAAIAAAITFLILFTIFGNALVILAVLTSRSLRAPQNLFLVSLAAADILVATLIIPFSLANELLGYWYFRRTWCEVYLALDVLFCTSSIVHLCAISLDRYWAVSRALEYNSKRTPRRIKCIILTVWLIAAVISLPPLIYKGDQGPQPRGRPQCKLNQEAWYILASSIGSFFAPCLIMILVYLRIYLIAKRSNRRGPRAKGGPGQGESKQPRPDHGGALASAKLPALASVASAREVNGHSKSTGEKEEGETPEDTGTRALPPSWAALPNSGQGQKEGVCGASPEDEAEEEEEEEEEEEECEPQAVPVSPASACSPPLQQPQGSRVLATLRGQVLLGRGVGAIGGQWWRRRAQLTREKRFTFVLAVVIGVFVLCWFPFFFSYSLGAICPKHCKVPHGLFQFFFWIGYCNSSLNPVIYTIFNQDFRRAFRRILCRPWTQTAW
# T3 sequence (Q9UBS5 15-961 limits assumed): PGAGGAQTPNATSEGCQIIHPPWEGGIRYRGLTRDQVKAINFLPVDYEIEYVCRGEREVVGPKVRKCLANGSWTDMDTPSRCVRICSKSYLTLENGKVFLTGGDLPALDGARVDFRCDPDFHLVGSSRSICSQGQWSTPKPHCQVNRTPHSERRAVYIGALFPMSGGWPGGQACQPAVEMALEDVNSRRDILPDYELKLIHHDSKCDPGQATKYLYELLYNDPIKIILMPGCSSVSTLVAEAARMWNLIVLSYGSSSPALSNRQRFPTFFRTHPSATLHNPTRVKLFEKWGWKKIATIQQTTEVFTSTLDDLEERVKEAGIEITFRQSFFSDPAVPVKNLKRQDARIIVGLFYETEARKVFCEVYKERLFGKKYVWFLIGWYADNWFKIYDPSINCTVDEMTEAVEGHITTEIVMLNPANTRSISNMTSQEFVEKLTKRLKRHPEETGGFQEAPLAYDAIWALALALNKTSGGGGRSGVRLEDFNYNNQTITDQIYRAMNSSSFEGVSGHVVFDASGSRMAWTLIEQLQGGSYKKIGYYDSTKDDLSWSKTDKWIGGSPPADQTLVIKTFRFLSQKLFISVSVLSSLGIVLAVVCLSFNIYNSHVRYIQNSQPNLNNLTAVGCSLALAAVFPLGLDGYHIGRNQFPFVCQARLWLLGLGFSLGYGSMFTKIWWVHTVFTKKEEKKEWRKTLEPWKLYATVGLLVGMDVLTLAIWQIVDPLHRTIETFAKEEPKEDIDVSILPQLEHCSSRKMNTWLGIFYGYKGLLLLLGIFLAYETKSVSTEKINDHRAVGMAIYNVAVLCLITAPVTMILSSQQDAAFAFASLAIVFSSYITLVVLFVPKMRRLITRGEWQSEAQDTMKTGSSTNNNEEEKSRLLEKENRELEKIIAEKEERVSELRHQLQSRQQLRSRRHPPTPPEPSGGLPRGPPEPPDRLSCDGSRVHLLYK
# T3 sequence (O75899 42-941 partner): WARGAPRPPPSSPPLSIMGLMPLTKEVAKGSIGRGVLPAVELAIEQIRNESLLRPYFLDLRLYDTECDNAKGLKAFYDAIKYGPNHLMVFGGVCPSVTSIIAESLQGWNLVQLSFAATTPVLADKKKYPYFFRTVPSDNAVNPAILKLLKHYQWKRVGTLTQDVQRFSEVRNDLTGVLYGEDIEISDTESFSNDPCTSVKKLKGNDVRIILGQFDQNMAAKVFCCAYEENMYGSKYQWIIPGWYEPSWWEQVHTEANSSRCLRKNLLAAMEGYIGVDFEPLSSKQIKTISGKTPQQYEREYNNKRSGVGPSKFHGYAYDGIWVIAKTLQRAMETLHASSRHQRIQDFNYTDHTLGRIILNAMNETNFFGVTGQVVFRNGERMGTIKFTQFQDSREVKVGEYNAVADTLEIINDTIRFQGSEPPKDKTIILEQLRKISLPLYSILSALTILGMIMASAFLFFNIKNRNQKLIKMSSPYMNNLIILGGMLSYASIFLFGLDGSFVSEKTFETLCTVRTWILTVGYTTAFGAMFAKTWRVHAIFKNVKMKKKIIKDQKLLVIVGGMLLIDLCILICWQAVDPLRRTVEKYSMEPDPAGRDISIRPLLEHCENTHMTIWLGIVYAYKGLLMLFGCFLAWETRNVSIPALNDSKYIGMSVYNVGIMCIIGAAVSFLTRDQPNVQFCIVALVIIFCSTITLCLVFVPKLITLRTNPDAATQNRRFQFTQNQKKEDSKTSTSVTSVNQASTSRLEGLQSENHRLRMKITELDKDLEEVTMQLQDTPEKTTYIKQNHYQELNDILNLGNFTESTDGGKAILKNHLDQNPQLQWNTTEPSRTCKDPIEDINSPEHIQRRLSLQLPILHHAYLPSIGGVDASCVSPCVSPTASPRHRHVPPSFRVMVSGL
# T4 sequence (P32245 whole entry): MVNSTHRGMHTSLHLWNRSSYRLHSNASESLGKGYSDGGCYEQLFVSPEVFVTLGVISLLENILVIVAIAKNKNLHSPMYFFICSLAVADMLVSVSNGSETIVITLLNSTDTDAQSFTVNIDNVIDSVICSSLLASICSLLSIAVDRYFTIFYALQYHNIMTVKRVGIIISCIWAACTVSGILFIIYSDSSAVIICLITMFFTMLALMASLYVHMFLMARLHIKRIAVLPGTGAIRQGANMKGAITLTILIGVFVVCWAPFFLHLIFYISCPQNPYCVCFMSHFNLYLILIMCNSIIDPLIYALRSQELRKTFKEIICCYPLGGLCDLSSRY
# T1 sequence (P08311 21-244): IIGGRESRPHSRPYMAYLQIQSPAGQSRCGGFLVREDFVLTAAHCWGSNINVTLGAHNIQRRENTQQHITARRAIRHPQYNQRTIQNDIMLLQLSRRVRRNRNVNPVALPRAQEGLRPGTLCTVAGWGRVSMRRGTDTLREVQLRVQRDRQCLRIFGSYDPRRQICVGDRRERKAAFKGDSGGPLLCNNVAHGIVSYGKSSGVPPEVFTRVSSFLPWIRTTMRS
smiles,measurement,setting,value
"CS(=O)(=O)N1CCN(C(=O)c2cnc3ccc(F)cc3c2N2CCC(C#N)(c3ccccc3)CC2)CC1 [Compound C-86, 1-(6-fluoro-3-(4-(methylsulfonyl)piperazine-1-carbonyl)quinolin-4-yl)-4-phenylpiperidine-4-carbonitrile]","RALDH activity, Aldered assay, in HCC cells",SNU398 human HCC cells; FIGS. 7-8,significantly reduced RALDH activity
same,RALDH activity as detected by Aldered (Aldefluor) assay,"SNU398 human HCC cells; SNU398 cells in vitro, 100 nM, DMSO control",abrogated
same,tumor inhibition,Huh1 tumors,significant tumor inhibition
same,drug exposure over time,"[1]; chow, 10, 30 and 60 mg/kg",consistent drug exposure over time
same,body weight,[1]; chow,without affecting body weight
same,inhibition at 10 µM,[2],0%
same,% Inh. Phosphodiesterase PDE4,Phosphodiesterase PDE4,−7%
same,inhibition at 10 µM,Adrenergic α2B,9%
same,inhibition at 10 µM,GABABIA,7%
same,inhibition at 10 µM,Melanocortin MC4,13%
same,% Inh. Nicotinic Acetylcholine,Nicotinic Acetylcholine,5%
same,inhibition at 10 µM,[3],35%
